ChEMBL document CHEMBL1201862, “PubChem BioAssay data set” (2004)
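Assay format: 96-well plates, 48-hour exposure. Abbreviation: GI50, concentration required for 50% inhibition of growth.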 Activity calls are given as the source filed them. No stated cut-off is given here; in the data, active = GI50 up to about 1.1 µM and inactive = higher.

Tests used:
Assay in all cases: NCI-60 cell line screen, 48 h
786-0 = test system: 786-0
A549 = test system: A549
ACHN = test system: ACHN
BT-549 = test system: BT-549
DU-145 = test system: DU-145
EKVX = test system: EKVX
HCC 2998 = test system: HCC 2998
HCT-116 = test system: HCT-116
HOP-62 = test system: HOP-62
HOP-92 = test system: HOP-92
Hs-578T = test system: Hs-578T
IGROV-1 = test system: IGROV-1
KM12 = test system: KM12
LOX IMVI = test system: LOX IMVI
M14 = test system: M14
MDA-MB-231 = test system: MDA-MB-231
NCI-H226 = test system: NCI-H226
NCI-H460 = test system: NCI-H460
NCI-H522 = test system: NCI-H522
NCI/ADR-RES = test system: NCI/ADR-RES
OVCAR-3 = test system: OVCAR-3
OVCAR-4 = test system: OVCAR-4
OVCAR-8 = test system: OVCAR-8
PC-3 = test system: PC-3
RXF 393 = test system: RXF 393
SF-268 = test system: SF-268
SF-539 = test system: SF-539
SK-MEL-28 = test system: SK-MEL-28
SK-MEL-2 = test system: SK-MEL-2
SN12C = test system: SN12C
SNB-19 = test system: SNB-19
SNB-75 = test system: SNB-75
SW-620 = test system: SW-620
T47D = test system: T47D
TK-10 = test system: TK-10
U-251 = test system: U-251
UACC-257 = test system: UACC-257
A498 = test system: A498
CAKI-1 = test system: CAKI-1
CCRF-CEM = test system: CCRF-CEM
HCT-15 = test system: HCT-15
HL-60 = test system: HL-60
HT-29 = test system: HT-29
K562 = test system: K562
MCF7 = test system: MCF7
MOLT-4 = test system: MOLT-4
Malme-3M = test system: Malme-3M
NCI-H23 = test system: NCI-H23
OVCAR-5 = test system: OVCAR-5
RPMI-8226 = test system: RPMI-8226
SF-295 = test system: SF-295
SK-MEL-5 = test system: SK-MEL-5
SR = test system: SR
UO-31 = test system: UO-31
COLO 205 = test system: COLO 205
MDA-MB-435 = test system: MDA-MB-435
MDA-N = test system: MDA-N
SK-OV-3 = test system: SK-OV-3
UACC-62 = test system: UACC-62

Cc1cc2c([nH]c3ccccc32)c(O)c1-c1c(C)cc2c([nH]c3ccccc32)c1O
GI50 (786-0): 13.7 µM (inactive) | GI50 (A549): 12.1 µM (inactive) | GI50 (ACHN): 14.3 µM (inactive) | GI50 (BT-549): 18.8 µM (inactive) | GI50 (DU-145): 13 µM (inactive) | GI50 (EKVX): 13.8 µM (inactive) | GI50 (HCC 2998): 10.6 µM (inactive) | GI50 (HCT-116): 14.2 µM (inactive) | GI50 (HOP-62): 17.1 µM (inactive) | GI50 (HOP-92): 15.7 µM (inactive) | GI50 (Hs-578T): 15.3 µM (inactive) | GI50 (IGROV-1): 12.4 µM (inactive) | GI50 (KM12): 10.1 µM (inactive) | GI50 (LOX IMVI): 16.7 µM (inactive) | GI50 (M14): 14.8 µM (inactive) | GI50 (MDA-MB-231): 17.5 µM (inactive) | GI50 (NCI-H226): 18.5 µM (inactive) | GI50 (NCI-H460): 4.57 µM (inactive) | GI50 (NCI-H522): 16.7 µM (inactive) | GI50 (NCI/ADR-RES): 13.9 µM (inactive) | GI50 (OVCAR-3): 15.8 µM (inactive) | GI50 (OVCAR-4): 15.3 µM (inactive) | GI50 (OVCAR-8): 15.7 µM (inactive) | GI50 (PC-3): 13.2 µM (inactive) | GI50 (RXF 393): 10.5 µM (inactive) | GI50 (SF-268): 13.8 µM (inactive) | GI50 (SF-539): 17 µM (inactive) | GI50 (SK-MEL-28): 30.5 µM (inactive) | GI50 (SK-MEL-2): 15.8 µM (inactive) | GI50 (SN12C): 2.48 µM (inactive) | GI50 (SNB-19): 16.9 µM (inactive) | GI50 (SNB-75): 14 µM (inactive) | GI50 (SW-620): 22.9 µM (inactive) | GI50 (T47D): 15.5 µM (inactive) | GI50 (TK-10): 17.4 µM (inactive) | GI50 (U-251): 11.5 µM (inactive) | GI50 (UACC-257): 16.5 µM (inactive)

O=S(=O)(c1cc(Cl)ccc1Cl)N1CCN(c2ccc(Cl)c(Cl)c2)CC1
GI50 (786-0): 17.9 µM (inactive) | GI50 (A498): 25.5 µM (inactive) | GI50 (A549): 35.7 µM (inactive) | GI50 (ACHN): 37 µM (inactive) | GI50 (BT-549): 33.3 µM (inactive) | GI50 (CAKI-1): 22 µM (inactive) | GI50 (CCRF-CEM): 44.8 µM (inactive) | GI50 (DU-145): > 100 µM (inactive) | GI50 (EKVX): 32.2 µM (inactive) | GI50 (HCC 2998): 62.1 µM (inactive) | GI50 (HCT-116): 34.6 µM (inactive) | GI50 (HCT-15): > 100 µM | GI50 (HL-60): > 100 µM (inactive) | GI50 (HOP-62): 18.2 µM (inactive) | GI50 (HOP-92): 18 µM (inactive) | GI50 (HT-29): 88.1 µM (inactive) | GI50 (Hs-578T): 29.9 µM (inactive) | GI50 (IGROV-1): 36.8 µM (inactive) | GI50 (K562): 91.6 µM (inactive) | GI50 (KM12): 28.2 µM (inactive) | GI50 (LOX IMVI): > 100 µM (inactive) | GI50 (M14): 39.6 µM (inactive) | GI50 (MCF7): > 100 µM (inactive) | GI50 (MDA-MB-231): > 100 µM (inactive) | GI50 (MOLT-4): > 100 µM (inactive) | GI50 (Malme-3M): 37.7 µM (inactive) | GI50 (NCI-H226): 21.7 µM (inactive) | GI50 (NCI-H23): 33.4 µM (inactive) | GI50 (NCI-H460): > 10 µM (inactive) | GI50 (NCI-H522): 18.5 µM (inactive) | GI50 (OVCAR-3): 14.6 µM (inactive) | GI50 (OVCAR-4): 16.1 µM (inactive) | GI50 (OVCAR-5): > 100 µM (inactive) | GI50 (OVCAR-8): 23.3 µM (inactive) | GI50 (PC-3): 99.8 µM (inactive) | GI50 (RPMI-8226): > 100 µM (inactive) | GI50 (RXF 393): 21 µM (inactive) | GI50 (SF-268): 27.3 µM (inactive) | GI50 (SF-295): 24.9 µM (inactive) | GI50 (SF-539): 25.2 µM (inactive) | GI50 (SK-MEL-28): > 100 µM (inactive) | GI50 (SK-MEL-5): 22.8 µM (inactive) | GI50 (SN12C): 78.5 µM (inactive) | GI50 (SNB-19): 14.1 µM (inactive) | GI50 (SNB-75): 14 µM (inactive) | GI50 (SR): > 100 µM (inactive) | GI50 (SW-620): > 100 µM (inactive) | GI50 (T47D): 20.4 µM (inactive) | GI50 (TK-10): 20.6 µM (inactive) | GI50 (U-251): 21.7 µM (inactive) | GI50 (UACC-257): 33.3 µM (inactive) | GI50 (UO-31): 35.8 µM (inactive)

Cc1c2cccc-2c2cc(O)c3ccccc3c2n1-c1ccc(N(C)C)cc1
GI50 (786-0): 12.2 µM (inactive) | GI50 (A498): 17.1 µM (inactive) | GI50 (A549): 14.6 µM (inactive) | GI50 (ACHN): 12.4 µM (inactive) | GI50 (BT-549): 10.7 µM (inactive) | GI50 (CAKI-1): 16 µM (inactive) | GI50 (CCRF-CEM): 9.77 µM (inactive) | GI50 (COLO 205): 16.1 µM (inactive) | GI50 (EKVX): 2.83 µM (inactive) | GI50 (HCC 2998): 13 µM (inactive) | GI50 (HCT-116): 15.7 µM (inactive) | GI50 (HCT-15): 5.37 µM | GI50 (HL-60): 19.9 µM (inactive) | GI50 (HOP-62): 12.2 µM (inactive) | GI50 (HOP-92): 2.51 µM (inactive) | GI50 (HT-29): 16.7 µM (inactive) | GI50 (Hs-578T): 15 µM (inactive) | GI50 (IGROV-1): 2.59 µM (inactive) | GI50 (K562): 6.81 µM (inactive) | GI50 (KM12): 6.82 µM (inactive) | GI50 (LOX IMVI): 13.4 µM (inactive) | GI50 (M14): 14.5 µM (inactive) | GI50 (MCF7): 0.395 µM (active) | GI50 (MDA-MB-231): 3.01 µM (inactive) | GI50 (MDA-MB-435): 13.1 µM (inactive) | GI50 (MDA-N): 17 µM (inactive) | GI50 (Malme-3M): 15.6 µM (inactive) | GI50 (NCI-H226): 9.68 µM (inactive) | GI50 (NCI-H23): 4.28 µM (inactive) | GI50 (NCI-H460): 15.5 µM (inactive) | GI50 (NCI-H522): 14.8 µM (inactive) | GI50 (NCI/ADR-RES): 14.6 µM (inactive) | GI50 (OVCAR-3): 6.46 µM (inactive) | GI50 (OVCAR-4): 3.37 µM (inactive) | GI50 (OVCAR-5): 10.9 µM (inactive) | GI50 (OVCAR-8): 15.9 µM (inactive) | GI50 (PC-3): 11.7 µM (inactive) | GI50 (RPMI-8226): 6.22 µM (inactive) | GI50 (SF-268): 15.9 µM (inactive) | GI50 (SF-295): 10.1 µM (inactive) | GI50 (SF-539): 14.3 µM (inactive) | GI50 (SK-MEL-28): 17.2 µM (inactive) | GI50 (SK-MEL-2): 16.7 µM (inactive) | GI50 (SK-MEL-5): 11.8 µM (inactive) | GI50 (SK-OV-3): 15.8 µM (inactive) | GI50 (SN12C): 16.1 µM (inactive) | GI50 (SNB-19): 16.4 µM (inactive) | GI50 (SNB-75): 4.06 µM (inactive) | GI50 (SR): 4.63 µM (inactive) | GI50 (SW-620): 20.7 µM (inactive) | GI50 (T47D): 0.304 µM (active) | GI50 (TK-10): 13 µM (inactive) | GI50 (U-251): 13.2 µM (inactive) | GI50 (UACC-257): 28.1 µM (inactive) | GI50 (UACC-62): 16 µM (inactive) | GI50 (UO-31): 11.5 µM (inactive)
